Data from patent US20130029928A1 (priority 2010, published 2013).
Where two headings read alike, the source gives them in different places.

Assay: Phase I study CXR1002-001: plasma pharmacokinetics (LC-MS/MS)
Type: in vivo, human
Conditions: for concentration at 528 hr / concentration at 528 h: Time 528 hr (Day 23); for concentration at 672 hr / concentration at 672 h: Time 672 hr (Day 29); for concentration at 696 hr / concentration at 696 h: Time 696 hr (Day 30); for concentration at 840 hr / concentration at 840 h: Time 840 hr (Day 36); for concentration at 864 hr / concentration at 864 h: Time 864 hr (Day 37); for concentration at 24 hr / concentration at 24 h: Time 24 hr (Day 2); for concentration at 168 hr / concentration at 168 h: Time 168 hr (Day 8); for concentration at 336 hr / concentration at 336 h: Time 336 hr (Day 15); for concentration at 360 hr / concentration at 360 h: Time 360 hr (Day 16)
Source text: PK samples, PD (fasting) samples, blood glucose, and blood triglyceride samples, were taken over a 6-week period.
Dose limiting toxicity (DLT) will be based on the toxicity assessments over the first 3-week period of the repeat dosing schedule. PK samples (single blood sample) were taken on the following basis: • Every 6 weeks during the repeat dosing phase • If dosing is interrupted or stopped, samples will be taken at intervals according to patient convenience • PK sampling for safety evaluation may take place at any time, as clinically indicated
Plasma samples were collected after the single 50 mg dose at the following timepoints: Pre-dose, and then 0.25, 0.5, 0.75, 1, 1.5, 2, 3, 4, 6, 24, 48, and 72 hours after administration and then once weekly at weeks 2, 3, 4, 5, and 6 (days 8, 15, 22, 29, and 36). For patients treated with the weekly repeat dose, plasma samples were collected at the following timepoints: Pre-dose and then 2, 3, 4 and 24 hours after administration for a total of 6 weeks. Thereafter a single sample was collected every 6 weeks for monitoring of exposure during long term treatment. Plasma samples were processed at site and stored at −80° C. prior to batch shipment to the analytical laboratory.

[1] = human, plasma, po, 1000 mg, Patient 041, 1000 mg weekly oral dose, read-out: Concentration (plasma level)
[2] = human, plasma, po, 1000 mg, Patient 042, 1000 mg weekly oral dose, read-out: Concentration (plasma level)
[3] = human, plasma, po, 1200 mg, Patient 036, 1200 mg weekly oral dose, read-out: Concentration (plasma level)
[4] = human, plasma, po, 1200 mg, Patient 037, 1200 mg weekly oral dose, read-out: Concentration (plasma level)
[5] = human, plasma, po, 1200 mg, Patient 038, 1200 mg weekly oral dose, read-out: Concentration (plasma level)

O=C(O)C(F)(F)C(F)(F)C(F)(F)C(F)(F)C(F)(F)C(F)(F)C(F)(F)F [CXR1002]
concentration at 528 hr [1]: 703 µM
concentration at 672 hr [1]: 670 µM
concentration at 674 hr [1]: 546 µM
concentration at 675 hr [1]: 740 µM
concentration at 676 hr (human, plasma, po, 1000 mg, Patient 041, 1000 mg weekly oral dose, Time 676 hr, read-out: Concentration (plasma level)): 802 µM
concentration at 696 hr [1]: 786 µM
concentration at 840 hr [1]: 715 µM
concentration at 842 hr [1]: 738 µM
concentration at 843 hr (human, plasma, po, 1000 mg, Patient 041, 1000 mg weekly oral dose, Time 843 hr, read-out: Concentration (plasma level)): 1010 µM
concentration at 864 hr [1]: 1210 µM
concentration at 2 hr [2]: 272 µM
concentration at 3 hr [2]: 359 µM
concentration at 4 hr [2]: 281 µM
concentration at 24 hr [2]: 239 µM
concentration at 168 hr [2]: 251 µM
concentration at 170 hr (human, plasma, po, 1000 mg, Patient 042, 1000 mg weekly oral dose, Time 170 hr, read-out: Concentration (plasma level)): 391 µM
concentration at 171 hr (human, plasma, po, 1000 mg, Patient 042, 1000 mg weekly oral dose, Time 171 hr, read-out: Concentration (plasma level)): 461 µM
concentration at 172 hr (human, plasma, po, 1000 mg, Patient 042, 1000 mg weekly oral dose, Time 172 hr, read-out: Concentration (plasma level)): 436 µM
concentration at 192 hr (human, plasma, po, 1000 mg, Patient 042, 1000 mg weekly oral dose, Time 192 hr (Day 9), read-out: Concentration (plasma level)): 502 µM
concentration at 336 hr [2]: 586 µM
concentration at 338 hr [2]: 645 µM
concentration at 339 hr [2]: 675 µM
concentration at 340 hr [2]: 636 µM
concentration at 360 hr [2]: 651 µM
concentration at 504 hr (human, plasma, po, 1000 mg, Patient 042, 1000 mg weekly oral dose, Time 504 hr (Day 22), read-out: Concentration (plasma level)): 765 µM
concentration at 506 hr (human, plasma, po, 1000 mg, Patient 042, 1000 mg weekly oral dose, Time 506 hr, read-out: Concentration (plasma level)): 872 µM
concentration at 507 hr (human, plasma, po, 1000 mg, Patient 042, 1000 mg weekly oral dose, Time 507 hr, read-out: Concentration (plasma level)): 952 µM
concentration at 508 hr (human, plasma, po, 1000 mg, Patient 042, 1000 mg weekly oral dose, Time 508 hr, read-out: Concentration (plasma level)): 987 µM
concentration at 528 hr [2]: 1230 µM
concentration at 672 hr [2]: 1040 µM
concentration at 674 hr [2]: 1180 µM
concentration at 675 hr [2]: 1190 µM
concentration at 696 hr [2]: 1280 µM
concentration at 840 hr [2]: 1250 µM
concentration at 842 hr [2]: 1140 µM
concentration at 843 hr (human, plasma, po, 1000 mg, Patient 042, 1000 mg weekly oral dose, Time 843 hr, read-out: Concentration (plasma level)): 1180 µM
concentration at 844 hr (human, plasma, po, 1000 mg, Patient 042, 1000 mg weekly oral dose, Time 844 hr, read-out: Concentration (plasma level)): 1160 µM
concentration at 864 hr [2]: 1250 µM
concentration at 2 hr [3]: 443 µM
concentration at 3 hr [3]: 431 µM
concentration at 4 hr [3]: 361 µM
concentration at 24 hr [3]: 708 µM
concentration at 168 hr [3]: 286 µM
concentration at 170 h (human, plasma, po, 1200 mg, Patient 036, 1200 mg weekly oral dose, Time 170 hr, read-out: Concentration (plasma level)): 680 µM
concentration at 171 h (human, plasma, po, 1200 mg, Patient 036, 1200 mg weekly oral dose, Time 171 hr, read-out: Concentration (plasma level)): 678 µM
concentration at 172 h (human, plasma, po, 1200 mg, Patient 036, 1200 mg weekly oral dose, Time 172 hr, read-out: Concentration (plasma level)): 665 µM
concentration at 192 h (human, plasma, po, 1200 mg, Patient 036, 1200 mg weekly oral dose, Time 192 hr (Day 9), read-out: Concentration (plasma level)): 295 µM
concentration at 336 hr [3]: 557 µM
concentration at 338 hr [3]: 840 µM
concentration at 339 hr [3]: 866 µM
concentration at 340 hr [3]: 930 µM
concentration at 360 hr [3]: 657 µM
concentration at 504 h (human, plasma, po, 1200 mg, Patient 036, 1200 mg weekly oral dose, Time 504 hr (Day 22), read-out: Concentration (plasma level)): 969 µM
concentration at 506 h (human, plasma, po, 1200 mg, Patient 036, 1200 mg weekly oral dose, Time 506 hr, read-out: Concentration (plasma level)): 1140 µM
concentration at 507 h (human, plasma, po, 1200 mg, Patient 036, 1200 mg weekly oral dose, Time 507 hr, read-out: Concentration (plasma level)): 1130 µM
concentration at 508 h (human, plasma, po, 1200 mg, Patient 036, 1200 mg weekly oral dose, Time 508 hr, read-out: Concentration (plasma level)): 1120 µM
concentration at 840 h [3]: 948 µM
concentration at 842 h [3]: 1250 µM
concentration at 844 h (human, plasma, po, 1200 mg, Patient 036, 1200 mg weekly oral dose, Time 844 hr, read-out: Concentration (plasma level)): 1230 µM
concentration at 864 h [3]: 1060 µM
concentration at 2 h [4]: 256 µM
concentration at 3 h [4]: 302 µM
concentration at 4 h [4]: 278 µM
concentration at 24 h [4]: 418 µM
concentration at 168 h [4]: 422 µM
concentration at 170 h (human, plasma, po, 1200 mg, Patient 037, 1200 mg weekly oral dose, Time 170 hr, read-out: Concentration (plasma level)): 634 µM
concentration at 171 h (human, plasma, po, 1200 mg, Patient 037, 1200 mg weekly oral dose, Time 171 hr, read-out: Concentration (plasma level)): 660 µM
concentration at 172 h (human, plasma, po, 1200 mg, Patient 037, 1200 mg weekly oral dose, Time 172 hr, read-out: Concentration (plasma level)): 712 µM
concentration at 192 h (human, plasma, po, 1200 mg, Patient 037, 1200 mg weekly oral dose, Time 192 hr (Day 9), read-out: Concentration (plasma level)): 841 µM
concentration at 336 h [4]: 780 µM
concentration at 338 h [4]: 1050 µM
concentration at 339 h [4]: 1040 µM
concentration at 340 h [4]: 1030 µM
concentration at 360 h [4]: 1140 µM
concentration at 504 h (human, plasma, po, 1200 mg, Patient 037, 1200 mg weekly oral dose, Time 504 hr (Day 22), read-out: Concentration (plasma level)): 1100 µM
concentration at 506 h (human, plasma, po, 1200 mg, Patient 037, 1200 mg weekly oral dose, Time 506 hr, read-out: Concentration (plasma level)): 1200 µM
concentration at 507 h (human, plasma, po, 1200 mg, Patient 037, 1200 mg weekly oral dose, Time 507 hr, read-out: Concentration (plasma level)): 1220 µM
concentration at 508 h (human, plasma, po, 1200 mg, Patient 037, 1200 mg weekly oral dose, Time 508 hr, read-out: Concentration (plasma level)): 1390 µM
concentration at 528 h [4]: 1390 µM
concentration at 672 h [4]: 1320 µM
concentration at 674 h [4]: 1460 µM
concentration at 675 h [4]: 1460 µM
concentration at 676 h (human, plasma, po, 1200 mg, Patient 037, 1200 mg weekly oral dose, Time 676 hr, read-out: Concentration (plasma level)): 1450 µM
concentration at 696 h [4]: 1530 µM
concentration at 2 h [5]: 313 µM
concentration at 3 h [5]: 314 µM
concentration at 4 h [5]: 298 µM
concentration at 24 h [5]: 242 µM
concentration at 168 h [5]: 268 µM
concentration at 170 h (human, plasma, po, 1200 mg, Patient 038, 1200 mg weekly oral dose, Time 170 hr, read-out: Concentration (plasma level)): 502 µM
concentration at 171 h (human, plasma, po, 1200 mg, Patient 038, 1200 mg weekly oral dose, Time 171 hr, read-out: Concentration (plasma level)): 481 µM
concentration at 172 h (human, plasma, po, 1200 mg, Patient 038, 1200 mg weekly oral dose, Time 172 hr, read-out: Concentration (plasma level)): 538 µM
concentration at 192 h (human, plasma, po, 1200 mg, Patient 038, 1200 mg weekly oral dose, Time 192 hr (Day 9), read-out: Concentration (plasma level)): 493 µM
concentration at 336 h [5]: 462 µM
concentration at 338 h [5]: 808 µM
concentration at 339 h [5]: 682 µM
concentration at 340 h [5]: 672 µM
concentration at 360 h [5]: 749 µM
concentration at 504 h (human, plasma, po, 1200 mg, Patient 038, 1200 mg weekly oral dose, Time 504 hr (Day 22), read-out: Concentration (plasma level)): 566 µM
concentration at 506 h (human, plasma, po, 1200 mg, Patient 038, 1200 mg weekly oral dose, Time 506 hr, read-out: Concentration (plasma level)): 658 µM
concentration at 507 h (human, plasma, po, 1200 mg, Patient 038, 1200 mg weekly oral dose, Time 507 hr, read-out: Concentration (plasma level)): 788 µM
concentration at 508 h (human, plasma, po, 1200 mg, Patient 038, 1200 mg weekly oral dose, Time 508 hr, read-out: Concentration (plasma level)): 699 µM
concentration at 528 h [5]: 746 µM
concentration at 672 h [5]: 682 µM
concentration at 674 h [5]: 932 µM
concentration at 675 h [5]: 885 µM
concentration at 676 h (human, plasma, po, 1200 mg, Patient 038, 1200 mg weekly oral dose, Time 676 hr, read-out: Concentration (plasma level)): 708 µM
concentration at 696 h [5]: 802 µM
concentration at 840 h [5]: 687 µM
concentration at 842 h [5]: 895 µM
concentration at 843 h (human, plasma, po, 1200 mg, Patient 038, 1200 mg weekly oral dose, Time 843 hr, read-out: Concentration (plasma level)): 955 µM
concentration at 844 h (human, plasma, po, 1200 mg, Patient 038, 1200 mg weekly oral dose, Time 844 hr, read-out: Concentration (plasma level)): 914 µM
concentration at 864 h [5]: 958 µM
gender difference in exposure (in vivo): no gender difference
accumulation (weekly dose): accumulates
maximal blood level reached (weekly repeat dose (Pharmacokinetic Summary)): 617 µM
